From patent US20250281480A1, “PHARMACEUTICAL DRY POWDER INHALATION FORMULATION” (Bayer Aktiengesellschaft, priority 2021, published 2025)

Columns and labels:
[1] = system: anesthetized thromboxane A2 challenged PAH-minipig; test: Haemodynamics in the anesthetized thromboxane challenged minipig (PAH minipig), inhaled nebulized solution: lung selectivity and duration of action; type: in vivo, Göttingen Minipigs; conditions: inhaled; for PAP % changes vs prevalue: mean
Description: Healthy Göttingen Minipigs® Ellegaard (Ellegaard, Denmark) of both sexes and having a weight of 2-6 kg were used. The animals were sedated by i.m. administration of about 25 mg/kg ketamine and about 10 mg/kg azaperone. Anaesthesia was initiated by i.v. administration of about 2 mg/kg ketamine and about 0.3 mg/kg midazolam. Maintenance of anaesthesia was by i.v. administration of about 7.5-30 mg/kg/h ketamine and about 1-4 mg/kg/h midazolam (rate of infusion 1-4 ml/kg/h) and about 150 μg/kg/h pancuronium bromide (for example Pancuronium-Actavis). After intubation, the animals were ventilated by the ventilator at a constant respiratory volume (10-12 ml/kg, 35 breaths/min; Avea®, Viasys Healthcare, USA, or Engström Carestation, GE Healthcare, Freiburg, Germany) such that an end-tidal CO2 concentration of about 5% was achieved. Ventilation was performed with room air, enriched with about 40% oxygen (normoxia). For the measurement of the haemodynamic parameters such as pulmonary arterial pressure (PAP), blood pressure (BP) and heart rate (HR), catheters were inserted into the carotid artery to measure the blood pressure, and a Swan-Ganz® catheter was introduced in a flow-directed manner via the jugular vein into the pulmonary artery. The haemodynamic signals were recorded and evaluated by means of pressure transducers (Combitransducer, B. Braun, Melsungen, Germany)/amplifiers and Ponemah® as data acquisition software.
After the instruments have been placed into the animals, continuous infusion of a thromboxane A2 analog was initiated to increase the pulmonary arterial pressure. About 0.3-0.75 μg/kg/min of 9,11-didesoxy-9α,11α-epoxymethanoprostaglandine F2α (U-44069; Sigma, cat. no. D0400, or Cayman Chemical Company, cat. no. 16440), dissolved in physiological saline, were infused to achieve an increase of the mean pulmonary arterial pressure to values of over 25 mmHg. 30 minutes after the start of the infusion, a plateau was reached, and the experiment was started.
The test substances were administered as i.v. infusion or by inhalation. For the preparation of the solution for inhalation, the following procedure was adopted: For an animal having a weight of 4 kg, to prepare the stock solution (300 μg/kg), 1.2 mg of the test compound were weighed out and dissolved in a total volume of 3 ml (1% DMSO, 99% 0.2% strength citric acid solution, 1 n aqueous sodium hydroxide solution to adjust the pH to 8). The solution was then diluted to the concentration employed using 0.2% strength citric acid which had been adjusted to pH 8 beforehand with aqueous sodium hydroxide solution. In each test, 3 ml of the solution of test compound per 4 kg animal were nebulized in the inhalation arm of the respiratory circuit using the Aeroneb® Pro nebulizer system. The mean nebulization time was about 7 min from the start of the nebulization.
With respect to a prediction of the duration of action for human studies comparative example 11 was compared in the PAH minipig model after inhaled application to Ventavis® (=Iloprost, 10 μg/kg nominal dose), which we used as a clinical reference. […] Therefore, the duration of action is more than 6 times longer compared to Ventavis in this preclinical animal model.

[2] = system: patients with pulmonary hypertension; conditions: clinical studies; cited from earlier work
plasma proteins [3] = test: Protein binding via Transil assay, human plasma; type: in vitro ADME; conditions: all tested species where comparative results are given
Text: The distribution of a test substance between Transil® (phosphatidylcholine lipid bilayers immobilized on silica beads) and plasma is a characteristic feature of any pharmaceutical compound and is dependent on its extent of binding to plasma proteins. By comparing the distribution between Transil® and buffer with the distribution between Transil® and plasma of any species of interest, the unbound fraction in the plasma of the respective animal species can be calculated in vitro. The respective plasma and buffer concentrations were determined via a radioactivity analysis. A detailed description of the method and its validation was published by Schuhmacher et al. (2).

[4] = Particle size distribution by laser diffraction (D.4); type: physicochemical; conditions: after micronization, monohydrate II as starting material, 50 mm spiral jet mill; dry measurement 4 bar
Description: All measurements cited in the above tables were obtained by laser diffraction with dry dispersion using compressed air. Measuring in aqueous suspension with surfactants may lead to smaller particle sizes (×90 up to 1 μm smaller).
The particle size analysis data are usually reported as cumulative undersized distribution by volume. The symbol x is used to denote the particle size, which is defined as diameter of a volume equivalent sphere. Most common characteristic values are calculated from the particle size distribution by interpolation. Frequently used are the particle sizes at the undersize values of 10%, 50% and 90% of the volume distribution, denoted as ×10, ×50 and ×90. ×50 is also known as median particle size. The symbol dis widely used to designate the particle size, thus the symbol x may be replaced by the symbol d.

plasma proteins [5] = test: Protein binding via ultrafiltration assay; type: in vitro ADME
Text: For this assay, filter membranes of 30 kDa pore size were used to separate plasma and protein free ultrafiltrate. The driving force for filtration was applied by centrifugation. Prior to protein binding studies, the adsorption (recovery) of the test compound to the ultra-filtration device and the ability of the test compound to pass the filter membrane was checked by filtration of the test compound dissolved in buffer at four concentrations. Sufficient stability of the test compound and an almost complete recovery (≥90% of the actual amount of compound used for the experiment) was a prerequisite for the use of the ultrafiltration method. The amount of organic solvent added to the plasma may not exceed 2% of the total incubation volume. Blood samples were collected in heparinized tubes either pooled (all species except human and monkey) or individually (human and monkey) and were used within 24 h for incubation experiments in blood. Plasma was prepared by centrifugation of the heparinized blood samples. Plasma was stored at −15° C. until use. Plasma stability, Compound recovery, unspecific binding to the membrane and the test device as well as partitioning between blood cells and plasma were controlled. The substance-associated radioactivity was determined by liquid scintillation counting. With this analytical method, it is not possible to distinguish between unchanged substance and radioactive metabolites. For details of the radioanalytical methods and the work up of the samples see Goeller et al. (3). A description of the ultrafiltration method in general was published by Zhang et al. In 2012 (4).

Compound: CC#CCC(C)[C@H](O)/C=C/[C@@H]1[C@H]2C/C(=C/CCCC(=O)O)C[C@H]2C[C@H]1O (stereo partly shown) [Ventavis, reference compound]
- maximal duration of action ([1]; 10 μg/kg nominal dose): about 40 min
- duration of action on haemodynamics (PVR) [2]: about 60 min

Compound: O=C(O)c1ccc(CCN(CCc2ccccc2OCc2ccc(-c3ccc(C(F)(F)F)cc3)cc2Cl)[C@H]2CCCc3nc(C(=O)O)ccc32)cc1 [Example 1, (5S)—{[2-(4-Carboxyphenyl)ethyl][2-(2-{[3-chloro-4′-(trifluoromethyl)biphenyl-4-yl]methoxy}phenyl)-ethyl]amino}-5,6,7,8-tetrahydroquinoline-2-carboxylic Acid Monohydrate II]
- free fractions (comparison) (plasma proteins [3]): lowest free fractions

Compound: O=C(O)c1ccc(CCN(CCc2cc(F)ccc2OCc2ccc(-c3nc4cc(Cl)ccc4o3)cc2)C2CCCc3nc(C(=O)O)ccc32)cc1 (single isomer, unassigned) [compound 4, 5-{[2-(4-Carboxyphenyl)ethyl][2-(2-{[4-(5-chloro-1,3-benzoxazol-2-yl)benzyl]oxy}-5-fluorophenyl)-ethyl]amino}-5,6,7,8-tetrahydroquinoline-2-carboxylic Acid, reference compound]
- duration of action ([1]; minipig model): sufficient duration of action

Compound: CCOC(=O)c1ccc2c(n1)CCCC2NCCc1ccccc1OCc1ccc(-c2ccc(C(F)(F)F)cc2)cc1Cl (single isomer, unassigned) [Example 8a, Ethyl 5-{[2-(2-{[3-chloro-4′-(trifluoromethyl)biphenyl-4-yl]methoxy}phenyl)ethyl]amino}-5,6,7,8-tetrahydroquinoline-2-carboxylate]
- PSD X10 [4]: X10: 0.2 μm,
- PSD X50 [4]: X50: 1.7 μm,
- PSD X90 [4]: X90: 4.2 μm

Compound: CC#CCC(C)[C@H](O)/C=C/[C@@H]1[C@H]2C/C(=C/CCCC(=O)O)C[C@H]2C[C@H]1O (stereo partly shown) [Ventavis ®]
- PAP % changes vs prevalue ([1]; 10 μg/kg nominal dose, time 0 min): 0%
- PAP % changes vs prevalue ([1]; 10 μg/kg nominal dose, time 10 min): −30.3%
- PAP % changes vs prevalue ([1]; 10 μg/kg nominal dose, time 20 min): −20.7%
- PAP % changes vs prevalue ([1]; 10 μg/kg nominal dose, time 30 min): −6.9%
- PAP % changes vs prevalue ([1]; 10 μg/kg nominal dose, time 40 min): 1.7%
- PAP % changes vs prevalue ([1]; 10 μg/kg nominal dose, time 50 min): 4.9%

Compound: COC(=O)N(C)c1c(N)nc(-c2nn(Cc3ccccc3F)c3ncccc23)nc1N [Comparative example 2, Methyl-4,6-diamino-2-[1-(2-fluorobenzyl)-1H-pyrazolo[3,4-b]pyridine-3-yl]-5-pyrimidinyl(methyl)carbamate]
- Fraction unbound (%) (plasma proteins [5]; Dog Beagle plasma): 17.1%
- Fraction unbound (%) (plasma proteins [5]; Human (male) plasma): 4.97%
- Fraction unbound (%) (plasma proteins [5]; Rat Wistar plasma): 15.7%
